{"source": "paper PMC9609173", "about": "“Preparation and Evaluation of [^18F]AlF-NOTA-NOC for PET Imaging of Neuroendocrine Tumors: Comparison to [^68Ga]Ga-DOTA/NOTA-NOC” (Molecules, 2022)", "key": {"[1]": {"test": "Determination of LogP (1-octanol/Dulbecco's PBS partition)", "type": "physicochemical", "description": "Radiolabeled peptide (5 µL, 3–5 MBq) was added to Dulbecco’s PBS (495 µL) along with 1-Octanol (500 µL) in an Eppendorf tube. The tubes were vortexed for 5 min and centrifuged to separate phases. A volume of 10 µL of each phase was transferred to new Eppendorf tubes. The fractions were counted in an well counter (Atomlab 950) and LogP were calculated [[…]]."}, "AR42J xenograft": {"test_system": "AR42J xenograft", "type": "in vivo, mice", "description": "All animal experiments were planned and performed following the national legislation by the Animal Experiments Inspectorate in Denmark. Male SCID (severe combined immunodeficiency) mice (bred in-house, age 9–12 weeks) had access to water and chow ad libitum. Anesthesia with approximately 2% isoflurane in 100% oxygen was applied and the mice were inoculated subcutaneously in the left shoulder with 1 × 10^6 AR42J cells 12–15 days before the experiment (tumor weight 364 ± 58 mg). For biodistribution, the AR42J xenografted mice were injected in the tail vein with [^68Ga]Ga-NOTA-NOC (50.2 ± 5 pmol, 627 ± 116 kBq, n = 4), [^68Ga]Ga-DOTA-NOC (42.5 ± 6 pmol, 509 ± 24 kBq, n = 3), or [^18F]AlF-NOTA-NOC (47.0 ± 10 pmol, 1017 ± 279 kBq, n = 3 for each time point). After 1 or 3 h, the mice were sacrificed and the organs were collected and weighed. The organ radioactivities were quantified in an Atomlab 950 well spectrometer which was cross calibrated to a high-purity germanium detector. The tissue uptake of injected radioactivity was determined as a percentage of the applied total injected activity per gram, %IA/g.\nGraphPad Prism 6.07 was applied for statistical analysis and data fitting. One-way ANOVA and Bonferroni correction for multiple comparisons were applied for each organ. P values considered statistically significant were * p ≤ 0.05, ** p ≤ 0.01, *** p ≤ 0.001, and **** p ≤ 0.0001. The Student’s two-tailed t-test was applied for exploration statistics within a single organ-to-tumor comparison for one time point. Data are presented as the mean ± SEM."}}, "note": "Where a SMILES comes first, the peptide text is derived from it. Bridges are numbered along the chain shown (N, C = ends). [ ]: non-standard residue; d: D form. The star is where a group is joined. DOTA = O=C(O)CN1CCN(CC(=O)O)CCN(CC(=O)*)CCN(CC(=O)O)CC1; 1Nal = N[C@@H](Cc1cccc2ccccc12)C(=O)O; Thr(ol) = C[C@@H](O)[C@H](N)CO"}
{"smiles": "C[C@@H](O)[C@@H]1NC(=O)[C@H](CCCCN)NC(=O)[C@@H](Cc2c[nH]c3ccccc23)NC(=O)[C@H](Cc2cccc3ccccc23)NC(=O)[C@@H](NC(=O)[C@@H](Cc2ccccc2)NC(=O)CN2CCN(CC(=O)O)CCN(CC(=O)O)CCN(CC(=O)O)CC2)CSSC[C@@H](C(=O)N[C@H](CO)[C@@H](C)O)NC1=O", "note": "[[^68Ga]Ga-DOTA-NOC, metal not drawn, reference compound] ({DOTA}-[dF]C[1Nal][dW]KTC[Thr(ol)]; disulfide 2-7 (inferred))", "values": [{"measurement": "partition coefficient, LogP", "setting": "[1]", "result": "−1.42"}, {"measurement": "tumor-to-blood ratio, 1 h p.i.", "setting": "AR42J xenograft; AR42J xenograft mice", "result": 35}, {"measurement": "tumor-to-liver ratio, 1 h p.i.", "setting": "AR42J xenograft; AR42J xenograft mice", "result": 3.7}, {"measurement": "tumor uptake at 1 h p.i.", "setting": "AR42J xenograft; male SCID mice, subcutaneous AR42J xenograft, tail vein injection app. 45 pmol, n = 3-4, mean ± SEM", "result": "26.4 ± 10.8", "unit": "% ID/g"}]}
